From BindingDB's records for doi:10.1021/jm800245z (Merck Research Laboratories, 2008) come the findings set out here.

The target in this experiment is Gag-Pol polyprotein (Human immunodeficiency virus type 1 group M subtype B (isolate HXB2), UniProt P04585). The experiment in a line: Microtiter Plate Assay for Strand Transfer. The conditions noted are these: pH 7.8; 37 °C. How it is done: The microtiter plate assay for stand transfer was performed with an immobilized donor substrate and a target substrate biotinylated at the 3-prime end of each DNA strand. Integrase was first assembled with immobilized LTR oligonucleotides for 30 min. Inhibitors were added after assembly and washings. For the strand transfer reaction, it was initiated with the addition of the biotinylated target substrate. Strand transfer reaction mixtures were incubated for additional 30 min, and the strand transfer products were detected by using alkaline phosphatase-conjugated avidin (Boehringer Mannheim, Indianapolis, Ind.).

Where only a bound is given, the exact number is not on record here.

`CNC(=O)c1nc(C(C)(C)NC(=O)C(=O)N(C)C)n(C)c(=O)c1O` [N-{2-[5-hydroxy-1-methyl-4-(methylcarbamoyl)-6-oxo-1,6-dihydropyrimidin-2-yl]propan-2-yl}-N',N'-dimethylethanediamide] registered an IC50 of over 5 µM.
